In ChEMBL document CHEMBL5576130, “Non-Covalent Inhibitors of SARS-CoV-2 Papain-Like Protease (PLpro): In Vitro and In Vivo Antiviral Activity” (J Med Chem, 2024) one finds Activity data, which are given here for one compound.

Each structure is given as a SMILES string. Activity calls are given as the source filed them. The rule behind the calls is not given here.

For assay [1], the system named is SARS-CoV-2. The assay is described as follows: Antiviral activity against SARS-CoV-2 Gamma (P.1) variant infected in human A549 cells harbouring ACE2 pretreated with compound for 1 hr followed by viral infection for 1 hrs and measured after 48 hrs by RT-qPCR analysis. The assay is classed as functional, organism-based. Conditions: Severe acute respiratory syndrome coronavirus 2, time 50.0 hrs. In general terms: Real-time PCR tracks product formation cycle by cycle.

For assay [2], the system named is SARS-CoV-2. The assay is described as follows: Antiviral activity against SARS-CoV-2 Delta (B.1.617.2) variant infected in human A549 cells harbouring ACE2 pretreated with compound for 1 hr followed by viral infection for 1 hrs and measured after 48 hrs by RT-qPCR analysis. Type of assay: functional, organism-based. Conditions: Severe acute respiratory syndrome coronavirus 2, time 50.0 hrs.

For the compound `Cc1ccc(NC2CNC2)cc1C(=O)N[C@H](C)c1cccc(-c2ccc(CNC3CCCC3)s2)c1`, the result in assay [1] and in assay [2] was Active.
